Experimental data as given in ChEMBL document CHEMBL1133535, “Pyrido[2,3-d]pyrimidin-7-one inhibitors of cyclin-dependent kinases” (J Med Chem, 2000).

How the values were obtained:
[1] = target: Cyclin-dependent kinase 4/cyclin D (Homo sapiens, UniProt P11802); test: Inhibition of Cyclin-dependent kinase 4-cyclin D; format: protein-complex assay
[2] = target: Fibroblast growth factor receptor (Homo sapiens, UniProt P22607+P11362+P22455+P21802); test: Inhibition of Fibroblast growth factor receptor (FGFr); format: protein assay
[3] = target: Cyclin-dependent kinase 2/cyclin E (Homo sapiens, UniProt P24941); test: Inhibition of Cyclin-dependent kinase 2-cyclin E; format: protein-complex assay
[4] = target: Proto-oncogene tyrosine-protein kinase Src (Homo sapiens, UniProt P12931); test: Inhibition of c-Src tyrosine kinase
Chain of Proto-oncogene tyrosine-protein kinase Src (P12931 2-536 limits assumed): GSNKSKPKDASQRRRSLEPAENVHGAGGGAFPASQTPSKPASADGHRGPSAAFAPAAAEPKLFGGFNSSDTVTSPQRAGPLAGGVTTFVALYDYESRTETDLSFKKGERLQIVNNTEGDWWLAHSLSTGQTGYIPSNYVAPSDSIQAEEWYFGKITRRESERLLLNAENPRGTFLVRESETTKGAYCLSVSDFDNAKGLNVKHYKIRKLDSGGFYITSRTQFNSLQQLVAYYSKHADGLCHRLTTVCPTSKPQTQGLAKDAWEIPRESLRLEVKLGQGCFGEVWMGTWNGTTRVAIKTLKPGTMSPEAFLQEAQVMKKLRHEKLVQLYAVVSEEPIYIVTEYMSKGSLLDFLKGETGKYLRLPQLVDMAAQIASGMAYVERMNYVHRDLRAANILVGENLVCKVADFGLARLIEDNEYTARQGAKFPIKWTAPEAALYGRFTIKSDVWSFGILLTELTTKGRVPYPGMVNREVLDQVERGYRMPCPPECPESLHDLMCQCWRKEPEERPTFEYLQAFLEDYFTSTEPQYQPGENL

[5] = target: Cyclin-dependent kinase 1/cyclin B (Homo sapiens, UniProt P06493); test: Inhibition of Cyclin-dependent kinase 1-cyclin B; format: protein-complex assay
[6] = target: Cyclin-dependent kinase 2/cyclin A (Homo sapiens, UniProt P24941); test: Inhibition of Cyclin-dependent kinase 2-cyclin A; format: protein-complex assay
HCT-116 = test: Inhibition of HCT116 human colon carcinoma cell proliferation; format: functional, cell-based

IC50 [1] [nM]	SMILES	other results
297	CC(C)Cn1c(=O)ccc2cnc(Nc3ccccc3)nc21	
1170	CCn1c(=O)ccc2cnc(Nc3ccncc3)nc21	
1820	CCn1c(=O)ccc2cnc(Nc3ccc(O)c(OC)c3)nc21	
900	CCn1c(=O)ccc2cnc(Nc3ccc(N4CCC(CCCO)CC4)cc3)nc21	
11	CCN(CC)CCOc1ccc(Nc2ncc3ccc(=O)n(C4CCCCC4)c3n2)cc1	
2860	COCCn1c(=O)ccc2cnc(Nc3ccccc3)nc21	
4150	COCn1c(=O)ccc2cnc(Nc3ccccc3)nc21	
330	CCn1c(=O)ccc2cnc(Nc3ccc(OCCN(C)C)cc3)nc21	
0.7	CCN(CC)CCOc1ccc(Nc2ncc3ccc(=O)n(C4CCCC4)c3n2)cc1	
585	CCn1c(=O)ccc2cnc(Nc3ccc(O)cc3)nc21	
1400	CCN(CC)c1ccc(Nc2ncc3ccc(=O)n(CC)c3n2)cc1	
4	CCN(CC)CCOc1ccc(Nc2ncc3ccc(=O)n(C4CCCCCC4)c3n2)cc1	
7800	CCOCCn1c(=O)ccc2cnc(Nc3ccccc3)nc21	
2330	CCn1c(=O)ccc2cnc(Nc3ccc(OCCOC)cc3)nc21	
2750	CCn1c(=O)ccc2cnc(Nc3ccc(-n4cccc4)cc3)nc21	
4080	CCn1c(=O)ccc2cnc(Nc3ccc(OC)c(OC)c3)nc21	
450	CCN(CC)CCOc1ccc(Nc2ncc3ccc(=O)n(C4CC5CCC4C5)c3n2)cc1 (stereo not drawn)	
620	CCn1c(=O)ccc2cnc(Nc3ccccc3)nc21	IC50 [2]: 3295 nM; IC50 [4]: 21000 nM
300	CCn1c(=O)ccc2cnc(Nc3ccc(N4CCCCC4)cc3)nc21	

More lines, now with the values behind:

SMILES	IC50 [1] [nM]	other results
CC(C)n1c(=O)ccc2cnc(Nc3ccc(N4CCN(C)CC4)cc3)nc21		IC50 [2]: 70 nM
CCn1c(=O)ccc2cnc(NC(C)C)nc21	4320	
COC(=O)Cn1c(=O)ccc2cnc(Nc3ccccc3)nc21	31000	
O=c1ccc2cnc(Nc3ccccc3)nc2n1-c1ccccc1	1670	
CCn1c(=O)ccc2cnc(N(C)c3ccccc3)nc21	> 40000	
CN1CCN(c2ccc(Nc3ncc4ccc(=O)n(CCOCc5ccccc5)c4n3)cc2)CC1	2100	
CN1CCN(c2ccc(Nc3ncc4ccc(=O)n(C5CC6CCC5C6)c4n3)cc2)CC1 (stereo not drawn)	6	
CN1CCN(c2ccc(Nc3ncc4ccc(=O)n(-c5ccccc5)c4n3)cc2)CC1	175	
O=c1ccc2cnc(Nc3ccccc3)nc2n1CC1CCCCC1	13500	
CN1CCN(c2ccc(Nc3ncc4ccc(=O)n(C5CC5)c4n3)cc2)CC1	140	
O=c1ccc2cnc(Nc3ccc(N4CCC(CCCO)CC4)cc3)nc2n1C1CCCC1	34	
CCCn1c(=O)ccc2cnc(Nc3ccccc3)nc21		IC50 [2]: 6600 nM
CC(C)CCn1c(=O)ccc2cnc(Nc3ccccc3)nc21	159	
CCn1c(=O)ccc2cnc(Nc3cccc(OC(F)(F)C(F)F)c3)nc21		IC50 [2]: 44200 nM
CN1CCN(c2ccc(Nc3ncc4ccc(=O)n(CC(O)CO)c4n3)cc2)CC1 (stereo not drawn)	1650	
CCn1c(=O)ccc2cnc(NCc3ccccc3)nc21	> 40000	
CN1CCN(c2ccc(Nc3ncc4ccc(=O)n(C5CCCC5)c4n3)cc2)CC1	9	
CC(C)CCn1c(=O)ccc2cnc(Nc3ccc(N4CCN(C)CC4)cc3)nc21	13	
CCn1c(=O)ccc2cnc(Nc3cccc(OC)c3)nc21	> 40000	
CC(C)n1c(=O)ccc2cnc(Nc3ccccc3)nc21	145	
CCC(C)n1c(=O)ccc2cnc(Nc3ccccc3)nc21 (stereo not drawn)	190	
CN1CCN(c2ccc(Nc3ncc4ccc(=O)n(C5CCCCC5)c4n3)cc2)CC1	4	IC50 [3]: 20 nM; IC50 [2]: 51 nM
CCCCn1c(=O)ccc2cnc(Nc3ccccc3)nc21		IC50 [5]: 2000 nM; IC50 [2]: 5290 nM
O=c1ccc2cnc(Nc3ccc(N4CCC(CCCO)CC4)cc3)nc2n1C1CC2CCC1C2 (stereo not drawn)	8	IC50 [3]: 165 nM; IC50 [6]: 209 nM; IC50 [5]: > 40000 nM; IC50 [2]: 8620 nM; IC50 (HCT-116): 213 nM
